Results published in patent US10494355B2, “Oxadiazole amine derivative compounds as histone deacetylase 6 inhibitor, and the pharmaceutical composition comprising the same” (Chong Kun Dang Pharmaceutical Corp., priority 2015, dated 2019).

How the values were obtained:
[1] = molecular target: T1, human recombinant HDAC1 (Homo sapiens, UniProt Q13547); test: HDAC1 enzyme activity inhibition assay (HDAC Fluorimetric Drug Discovery Kit); assay type: biochemical; settings: human recombinant HDAC1, 10 μM substrate, 30° C. 60 minutes
T1 construct: purchased Enzo Life Science BML-SE456
Method in brief: (§1)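 First, compound in 5-fold dilution steps is combined with 0.3 μg enzyme and 10 μM Fluor de Lys-SIRT1 substrate. After 60 min at 30° C, developer is added for 30 min. Fluorescence at Ex 360/Em 460 then gives IC50 values.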

[2] = molecular target: T2, human recombinant HDAC6 (Homo sapiens, UniProt Q9UBN7); test: HDAC6 enzyme activity inhibition assay (HDAC Fluorimetric Drug Discovery Kit); assay type: biochemical; settings: 30° C. 60 minutes
T2 construct: purchased Calbiochem 382180
T2 sequence (Q9UBN7 1-1215): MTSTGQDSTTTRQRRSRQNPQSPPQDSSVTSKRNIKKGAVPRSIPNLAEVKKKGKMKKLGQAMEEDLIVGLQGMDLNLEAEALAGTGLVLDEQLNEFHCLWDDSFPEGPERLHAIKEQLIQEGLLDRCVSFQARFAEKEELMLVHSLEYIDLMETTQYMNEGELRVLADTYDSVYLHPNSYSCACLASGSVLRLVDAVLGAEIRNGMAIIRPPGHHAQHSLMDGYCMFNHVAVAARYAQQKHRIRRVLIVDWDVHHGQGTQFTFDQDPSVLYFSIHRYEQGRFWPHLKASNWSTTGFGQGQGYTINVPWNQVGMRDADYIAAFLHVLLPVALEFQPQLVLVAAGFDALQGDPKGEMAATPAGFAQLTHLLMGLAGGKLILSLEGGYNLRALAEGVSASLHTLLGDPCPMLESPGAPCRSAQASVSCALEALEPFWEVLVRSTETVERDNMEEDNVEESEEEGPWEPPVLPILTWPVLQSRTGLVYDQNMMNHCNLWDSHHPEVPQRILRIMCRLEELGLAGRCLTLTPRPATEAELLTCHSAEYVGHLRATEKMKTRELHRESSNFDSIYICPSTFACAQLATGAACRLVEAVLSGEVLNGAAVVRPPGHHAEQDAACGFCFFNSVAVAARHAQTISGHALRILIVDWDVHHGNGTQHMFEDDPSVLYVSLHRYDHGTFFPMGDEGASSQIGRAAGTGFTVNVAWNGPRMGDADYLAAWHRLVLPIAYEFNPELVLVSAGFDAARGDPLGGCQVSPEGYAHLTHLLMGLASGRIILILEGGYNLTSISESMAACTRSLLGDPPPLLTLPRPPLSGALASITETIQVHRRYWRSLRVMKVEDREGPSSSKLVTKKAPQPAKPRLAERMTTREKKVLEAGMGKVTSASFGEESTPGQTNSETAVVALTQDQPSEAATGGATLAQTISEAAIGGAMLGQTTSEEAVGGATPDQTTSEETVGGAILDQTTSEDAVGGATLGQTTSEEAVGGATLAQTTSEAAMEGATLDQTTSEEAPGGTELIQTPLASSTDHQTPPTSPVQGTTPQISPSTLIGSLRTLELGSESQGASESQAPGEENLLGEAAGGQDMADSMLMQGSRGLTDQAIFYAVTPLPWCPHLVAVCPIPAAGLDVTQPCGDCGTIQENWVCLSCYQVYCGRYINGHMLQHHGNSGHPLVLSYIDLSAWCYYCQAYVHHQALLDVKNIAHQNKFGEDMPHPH
Method in brief: as §1

T1 sequence (Q13547 whole entry): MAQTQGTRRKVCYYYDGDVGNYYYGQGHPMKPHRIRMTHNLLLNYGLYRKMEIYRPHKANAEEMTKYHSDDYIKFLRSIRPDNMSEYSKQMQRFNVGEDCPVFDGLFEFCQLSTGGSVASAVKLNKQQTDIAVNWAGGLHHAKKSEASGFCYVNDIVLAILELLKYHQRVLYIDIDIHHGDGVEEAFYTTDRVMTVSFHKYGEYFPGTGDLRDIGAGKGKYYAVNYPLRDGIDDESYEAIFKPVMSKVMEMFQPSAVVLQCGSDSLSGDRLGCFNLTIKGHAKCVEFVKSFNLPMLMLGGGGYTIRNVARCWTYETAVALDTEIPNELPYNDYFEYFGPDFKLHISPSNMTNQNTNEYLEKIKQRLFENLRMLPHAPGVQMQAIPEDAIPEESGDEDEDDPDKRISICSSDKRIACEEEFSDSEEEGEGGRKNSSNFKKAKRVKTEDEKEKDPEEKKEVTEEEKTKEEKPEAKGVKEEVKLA

| SMILES | IC50 [1] | IC50 [2] |
| --- | --- | --- |
| FC(F)c1nnc(-c2cnc(NC3(c4cccnc4)CCC3)nc2)o1 [Compound 1913, 5-(5-(difluoromethyl)-1,3,4-oxadiazol-2-yl)-N-(1-(pyridin-3-yl)cyclobutyl)pyrimidin-2-amine] | > 10000 nM | 40 nM |
| Fc1ccc(C2(Nc3ncc(-c4nnc(C(F)F)o4)cn3)CCC2)c(Cl)c1 [Compound 1959, N-(1-(2-chloro-4-fluorophenyl)cyclobutyl)-5-(5-(difluoromethyl)-1,3,4-oxadiazol-2-yl)pyrimidin-2-amine] | > 10000 nM | 163 nM |
| Fc1ccc(C2(Nc3ncc(-c4nnc(C(F)(F)F)o4)cn3)CCC2)c(Cl)c1 [Compound 1960, N-(1-(2-chloro-4-fluorophenyl)cyclobutyl)-5-(5-(trifluoromethyl)-1,3,4-oxadiazol-2-yl)pyrimidin-2-amine] | > 10000 nM | 1230 nM |
| Fc1ccc(Cl)c(C2(Nc3ncc(-c4nnc(C(F)F)o4)cn3)CCC2)c1 [Compound 1961, N-(1-(2-chloro-5-fluorophenyl)cyclobutyl)-5-(5-(difluoromethyl)-1,3,4-oxadiazol-2-yl)pyrimidin-2-amine] | > 10000 nM | 115 nM |
| Fc1ccc(Cl)c(C2(Nc3ncc(-c4nnc(C(F)(F)F)o4)cn3)CCC2)c1 [Compound 1962, N-(1-(2-chloro-5-fluorophenyl)cyclobutyl)-5-(5-(trifluoromethyl)-1,3,4-oxadiazol-2-yl)pyrimidin-2-amine] | > 10000 nM | 888 nM |
| Fc1ccc(Cl)cc1C1(Nc2ncc(-c3nnc(C(F)F)o3)cn2)CCC1 [Compound 1963, N-(1-(5-chloro-2-fluorophenyl)cyclobutyl)-5-(5-(difluoromethyl)-1,3,4-oxadiazol-2-yl)pyrimidin-2-amine] | > 10000 nM | 89 nM |

Second part, the compound after the results:

| IC50 [1] | IC50 [2] | SMILES |
| --- | --- | --- |
| > 10000 nM | 1850 nM | Fc1ccc(Cl)cc1C1(Nc2ncc(-c3nnc(C(F)(F)F)o3)cn2)CCC1 [Compound 1964, N-(1-(5-chloro-2-fluorophenyl)cyclobutyl)-5-(5-(trifluoromethyl)-1,3,4-oxadiazol-2-yl)pyrimidin-2-amine] |
| > 10000 nM | 70 nM | Fc1c(Cl)cccc1C1(Nc2ncc(-c3nnc(C(F)F)o3)cn2)CCC1 [Compound 1965, N-(1-(3-chloro-2-fluorophenyl)cyclobutyl)-5-(5-(difluoromethyl)-1,3,4-oxadiazol-2-yl)pyrimidin-2-amine] |
| > 10000 nM | 1470 nM | Fc1c(Cl)cccc1C1(Nc2ncc(-c3nnc(C(F)(F)F)o3)cn2)CCC1 [Compound 1966, N-(1-(3-chloro-2-fluorophenyl)cyclobutyl)-5-(5-(trifluoromethyl)-1,3,4-oxadiazol-2-yl)pyrimidin-2-amine] |
| > 10000 nM | 387 nM | FC(F)c1nnc(-c2cnc(NC3(c4ccc(C5CCN(C6COC6)CC5)cc4)CCC3)nc2)o1 [Compound 2023, 5-(5-(difluoromethyl)-1,3,4-oxadiazol-2-yl)-N-(1-(4-(1-(oxetan-3-yl)piperidin-4-yl)phenyl)cyclobutyl)pyrimidin-2-amine] |
| > 10000 nM | > 10000 nM | Cc1ccc(S(=O)(=O)CC2(Nc3ncc(-c4nnc(C(F)F)o4)cn3)CCC2)cc1 [Compound 2026, 5-(5-(difluoromethyl)-1,3,4-oxadiazol-2-yl)-N-(1-(tosylmethyl)cyclobutyl)pyrimidin-2-amine] |
| > 10000 nM | 90 nM | Fc1ccc(C2(Nc3ncc(-c4nnc(C(F)F)o4)cn3)CCC2)c(F)c1 [Compound 2027, 5-(5-(difluoromethyl)-1,3,4-oxadiazol-2-yl)-N-(1-(2,4-difluorophenyl)cyclobutyl)pyrimidin-2-amine] |
| > 10000 nM | 302 nM | FC(F)c1nnc(-c2cnc(NC3(c4ccccc4OC(F)(F)F)CCC3)nc2)o1 [Compound 2028, 5-(5-(difluoromethyl)-1,3,4-oxadiazol-2-yl)-N-(1-(2-(trifluoromethoxy)phenyl)cyclobutyl)pyrimidin-2-amine] |
